Molecular target: T1, PLK1 (Homo sapiens, UniProt P53350)
T1 construct: endogenous in cells; host or cells: HeLa LgBit (Plk1-HiBit KI): HeLa stably expressing LgBit, with a CRISPR/Cas9 knock-in of HiBit at the endogenous PLK1 locus
Assay: Luciferase assay for PLK1 in HeLa LgBit (Plk1-HiBit KI) cell line
Format: cell-based
Details: 300 nM compound, luminescence after 9 hours
Experimental: 2. Luciferase Assay for PLK1
(1) Preparation and Culture of HeLa LgBit (Plk1-HiBit KI) Cell Line
A HeLa cell line in which the LgBit vector was transfected and expressed stably was prepared. Then, after constructing gRNA and donor to express the HiBit amino acid sequence behind the C-terminal of the Plk1 gene, which was inherent in the cell, it was inserted into the cell together with a vector capable of expressing CRISPR/Cas9. Only the cells in which the insertion was completed and knock-in had progressed were selected, sub-cultured and used.
(2) Treatment of Compounds of the Present Invention and Method of Luciferase Assay
In the case of HeLa LgBit (Plk1-HiBit KI), the compounds were treated after being released after thymidine block, and the process was as follows. Thymidine (Sigma-Aldrich Cat. No. T9250-5G) was completely dissolved in DW and used in the experiment. For thymidine block, the products were treated with 2 mM of thymidine and then incubated for 24 hours. For release and chemical treatment, the medium was suctioned and washed with 1×PBS. TrypLE™ was added and incubated in 37° C. CO2 incubator for 5 min. Cells neutralized by adding complete media were counted through a counter. For each well of a 96-well culture plate (SPL), 3.3×10^4 cells and a total medium volume of 150 μL were seeded and incubated in a CO2 incubator.
Each cell line was incubated in a CO2 incubator for 18 hours, and Endurazine was added to each well to make up 4% of the total volume. After adding the compound of the present invention in a 96-well white plate (SPL) to a concentration of 300 nM, the wavelength of the plate reader (BMG Labtech, CLARIOstar Plus) was set to […], and then the luminescence was tracked in real time.
In Table 2, Activity represents the ratio of the luminescense value of each Exemplary Compound treatment group to DMSO treatment group (+++: <0.3, ++<0.6, +<0.7).

T1 sequence (P53350 whole entry): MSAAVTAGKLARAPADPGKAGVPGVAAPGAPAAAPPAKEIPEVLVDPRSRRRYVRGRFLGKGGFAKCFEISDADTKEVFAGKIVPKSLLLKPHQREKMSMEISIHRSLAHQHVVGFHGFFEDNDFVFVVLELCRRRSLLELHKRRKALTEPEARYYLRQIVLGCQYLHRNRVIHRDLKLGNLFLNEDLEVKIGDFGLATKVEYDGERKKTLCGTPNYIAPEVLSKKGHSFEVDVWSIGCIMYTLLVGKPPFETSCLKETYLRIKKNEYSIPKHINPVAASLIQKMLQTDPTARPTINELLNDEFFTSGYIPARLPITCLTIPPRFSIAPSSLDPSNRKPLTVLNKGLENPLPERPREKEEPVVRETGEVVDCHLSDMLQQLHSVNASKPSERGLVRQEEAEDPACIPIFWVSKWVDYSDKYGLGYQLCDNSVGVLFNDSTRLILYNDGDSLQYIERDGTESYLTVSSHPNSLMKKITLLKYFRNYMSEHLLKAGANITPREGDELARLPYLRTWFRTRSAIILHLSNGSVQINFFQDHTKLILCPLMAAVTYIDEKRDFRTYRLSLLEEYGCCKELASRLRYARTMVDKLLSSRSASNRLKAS

Activity: ratio of the luminescense value of each Exemplary Compound treatment group to DMSO treatment group, ++ (++<0.6):
C=CC[C@H]1CN(C2CCCC2)c2nc(Nc3ccc(C(=O)NC4CCN(C(=O)CCN5CCN(c6cccc7c6C(=O)N(C6CCC(=O)NC6=O)C7=O)CC5)CC4)cc3OC)ncc2N(C)C1=O (single isomer, unassigned) [Compound 70, 4-((7-allyl-9-cyclopentyl-5-methyl-6-oxo-6,7,8,9-tetrahydro-5H-pyrimido[4,5-b][1, 4]diazepin-2-yl)amino)-N-(1-(3-(4-(2-(2,6-dioxopiperidin-3-yl)-1,3-dioxoisoindolin-4-yl)piperazin-1-yl)propanoyl)piperidin-4-yl)-3-methoxybenzamide]
COc1cc(C(=O)NC2CCN(CCNc3cccc4c3C(=O)N(C3CCC(=O)NC3=O)C4=O)CC2)c(F)cc1Nc1ncc2c(n1)N(C1CCCC1)CC(F)(F)C(=O)N2C (stereo not drawn) [Compound 1, 4-((9-cyclopentyl-7,7-difluoro-5-methyl-6-oxo-6,7,8,9-tetrahydro-5H-pyrimido[4,5-b][1,4]diazepin-2-yl)amino)-N-(1-(2-((2-(2,6-dioxopiperidin-3-yl)-1,3-dioxoisoindolin-4-yl)amino)ethyl)piperidin-4-yl)-2-fluoro-5-methoxybenzamide]
COc1cc(C(=O)NC2CCN(CCOc3ccc4c(c3)C(=O)N(C3CCC(=O)NC3=O)C4=O)CC2)c(F)cc1Nc1ncc2c(n1)N(C1CCCC1)CC(F)(F)C(=O)N2C (stereo not drawn) [Compound 3, 4-((9-cyclopentyl-7,7-difluoro-5-methyl-6-oxo-6,7,8,9-tetrahydro-5H-pyrimido[4,5-b][1,4]diazepin-2-yl)amino)-N-(1-(2-((2-(2,6-dioxopiperidin-3-yl)-1,3-dioxoisoindolin-5-yl)oxy)ethyl)piperidin-4-yl)-2-fluoro-5-methoxybenzamide]
COc1cc(C(=O)NC2CCN(CCSc3cccc4c3C(=O)N(C3CCC(=O)NC3=O)C4=O)CC2)c(F)cc1Nc1ncc2c(n1)N(C1CCCC1)CC(F)(F)C(=O)N2C (stereo not drawn) [Compound 11, 4-((9-cyclopentyl-7,7-difluoro-5-methyl-6-oxo-6,7,8,9-tetrahydro-5H-pyrimido[4,5-b][1,4]diazepin-2-yl)amino)-N-(1-(2-((2-(2,6-dioxopiperidin-3-yl)-1,3-dioxoisoindolin-4-yl)thio)ethyl)piperidin-4-yl)-2-fluoro-5-methoxybenzamide]
COc1cc(C(=O)NC2CCN(CCCc3cccc4c3C(=O)N(C3CCC(=O)NC3=O)C4=O)CC2)ccc1Nc1ncc2c(n1)N(C1CCCC1)CC(F)(F)C(=O)N2C (stereo not drawn) [Compound 14, 4-((9-cyclopentyl-7,7-difluoro-5-methyl-6-oxo-6,7,8,9-tetrahydro-5H-pyrimido[4,5-b][1,4]diazepin-2-yl)amino)-N-(1-(3-(2-(2,6-dioxopiperidin-3-yl)-1,3-dioxoisoindolin-4-yl)propyl)piperidin-4-yl)-3-methoxybenzamide]
COc1cc(C(=O)NC2CCN(CCOCCOCCOCCOCCOCCOCCNc3cccc4c3C(=O)N(C3CCC(=O)NC3=O)C4=O)CC2)c(F)cc1Nc1ncc2c(n1)N(C1CCCC1)CC(F)(F)C(=O)N2C (stereo not drawn) [Compound 17, 4-((9-cyclopentyl-7,7-difluoro-5-methyl-6-oxo-6,7,8,9-tetrahydro-5H-pyrimido[4,5-b][1,4]diazepin-2-yl)amino)-N-(1-(20-((2-(2,6-dioxopiperidin-3-yl)-1,3-dioxoisoindolin-4-yl)amino)-3,6,9,12,15,18-hexaoxaicosyl)piperidin-4-yl)-2-fluoro-5-methoxybenzamide]
CN1C(=O)C(F)(F)CN(C2CCCC2)c2nc(Nc3ccc(C(=O)NC4CCN(C(=O)CCCNc5cccc6c5C(=O)N(C5CCC(=O)NC5=O)C6=O)CC4)cc3F)ncc21 (stereo not drawn) [Compound 27, 4-((9-cyclopentyl-7,7-difluoro-5-methyl-6-oxo-6,7,8,9-tetrahydro-5H-pyrimido[4,5-b][1,4]diazepin-2-yl)amino)-N-(1-(4-((2-(2,6-dioxopiperidin-3-yl)-1,3-dioxoisoindolin-4-yl)amino)butanoyl)piperidin-4-yl)-3-fluorobenzamide]

Activity: ratio of the luminescense value of each Exemplary Compound treatment group to DMSO treatment group, + (+<0.7):
C=C[C@]1(F)CN(C2CCCC2)c2nc(Nc3ccc(C(=O)NC4CCN(C(=O)CCN5CCN(c6cccc7c6C(=O)N(C6CCC(=O)NC6=O)C7=O)CC5)CC4)cc3OC)ncc2N(C)C1=O (single isomer, unassigned) [Compound 109]
COc1cc(C(=O)N[C@H]2CC[C@@H](N(C)CCCNc3cccc4c3C(=O)N(C3CCC(=O)NC3=O)C4=O)CC2)ccc1Nc1ncc2c(n1)N(C1CCCC1)CC(F)(F)C(=O)N2C (stereo partly drawn) [Compound 16, 4-((9-cyclopentyl-7,7-difluoro-5-methyl-6-oxo-6,7,8,9-tetrahydro-5H-pyrimido[4,5-b][1,4]diazepin-2-yl)amino)-N-((1s,4s)-4-((3-((2-(2,6-dioxopiperidin-3-yl)-1,3-dioxoisoindolin-4-yl)amino)propyl)(methyl)amino)cyclohexyl)-3-methoxybenzamide]
COc1cc(C(=O)NC2CCN(Cc3ccc(COc4ccc5c(c4)CN([C@H]4CCC(=O)NC4=O)C5=O)cc3)CC2)ccc1Nc1ncc2c(n1)N(C1CCCC1)CC(F)(F)C(=O)N2C [Compound 22, (S)-4-((9-cyclopentyl-7,7-difluoro-5-methyl-6-oxo-6,7,8,9-tetrahydro-5H-pyrimido[4,5-b][1,4]diazepin-2-yl)amino)-N-(1-(4-(((2-(2,6-dioxopiperidin-3-yl)-1-oxoisoindolin-5-yl)oxy)methyl)benzyl)piperidin-4-yl)-3-methoxybenzamide]
COc1cc(C(=O)NC2CCN(C(=O)CCNc3cccc4c3C(=O)N(C3CCC(=O)NC3=O)C4=O)CC2)c(F)cc1Nc1ncc2c(n1)N(C1CCCC1)CC(F)(F)C(=O)N2C (stereo not drawn) [Compound 24, 4-((9-cyclopentyl-7,7-difluoro-5-methyl-6-oxo-6,7,8,9-tetrahydro-5H-pyrimido[4,5-b][1,4]diazepin-2-yl)amino)-N-(1-(3-((2-(2,6-dioxopiperidin-3-yl)-1,3-dioxoisoindolin-4-yl)amino)propanoyl)piperidin-4-yl)-2-fluoro-5-methoxybenzamide]
COc1cc(C(=O)NC2CCN(C(=O)CCCNc3ccc4c(c3)C(=O)N(C3CCC(=O)NC3=O)C4=O)CC2)c(F)cc1Nc1ncc2c(n1)N(C1CCCC1)CC(F)(F)C(=O)N2C (stereo not drawn) [Compound 35, 4-((9-cyclopentyl-7,7-difluoro-5-methyl-6-oxo-6,7,8,9-tetrahydro-5H-pyrimido[4,5-b][1,4]diazepin-2-yl)amino)-N-(1-(4-((2-(2,6-dioxopiperidin-3-yl)-1,3-dioxoisoindolin-5-yl)amino)butanoyl)piperidin-4-yl)-2-fluoro-5-methoxybenzamide]

Reference: patent US20250114460A1, “NOVEL PLK1 DEGRADATION INDUCING COMPOUND” (UPPTHERA, INC., priority 2021, published 2025)
